From patent US5622962A, “5α-reductase inhibitors” (priority 1995, dated 1997)
Read-outs that look alike come from different tables or passages of the source.

Tests used:
[1] = target: T1, Type I 5α-Reductase from Human Scalp (Homo sapiens, UniProt P18405); assay: Human Type I 5α-reductase assay (conversion of [3H]-testosterone to 5α-reduced metabolites); type: biochemical
T1 construct: Scalp punch biopsies from graft recipient sites were obtained from human hair transplant procedures; from tissue; host or cells: human scalp punch biopsies (hair transplant graft recipient sites), homogenate, 100,000×g pellet
T1 sequence (P18405 1-259): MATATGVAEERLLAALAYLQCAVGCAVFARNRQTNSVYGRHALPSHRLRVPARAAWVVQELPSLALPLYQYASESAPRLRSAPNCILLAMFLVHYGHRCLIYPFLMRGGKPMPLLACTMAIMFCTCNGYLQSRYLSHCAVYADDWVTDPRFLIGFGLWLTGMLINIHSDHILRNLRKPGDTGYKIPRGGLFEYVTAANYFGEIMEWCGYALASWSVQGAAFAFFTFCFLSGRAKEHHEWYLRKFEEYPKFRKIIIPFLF

[2] = target: T2, Type II 5α-Reductase from Human Prostate (Homo sapiens, UniProt P31213); assay: Human Type II 5α-reductase assay (conversion of [3H]-testosterone to 5α-reduced metabolites); type: biochemical
T2 construct: The same procedure as above was used for preparations using tissue from prostate surgery; from tissue; host or cells: human prostate tissue from surgery, homogenate, 100,000×g pellet
T2 sequence (P31213 1-254): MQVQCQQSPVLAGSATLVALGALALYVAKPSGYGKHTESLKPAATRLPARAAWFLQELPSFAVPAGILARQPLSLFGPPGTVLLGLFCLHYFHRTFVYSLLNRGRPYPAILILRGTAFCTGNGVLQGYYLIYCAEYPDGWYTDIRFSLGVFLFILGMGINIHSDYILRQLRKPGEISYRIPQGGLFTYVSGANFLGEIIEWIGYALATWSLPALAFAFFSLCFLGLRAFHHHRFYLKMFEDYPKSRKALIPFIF

[3] = pH 7.5, 0.3 μM, 50 nM [3H]-testosterone, pH 7.5, 25°, 180 min, compared to control reaction mixtures, read-out: percent inhibition of Type I AR
[4] = pH 5.5, 0.3 μM, sodium acetate pH 5.5, 25°, 30 min, compared to control reaction mixtures, read-out: percent inhibition of Type II AR
[5] = pH 7.5, read-out: percent inhibition of Type I AR
[6] = pH 5.5, read-out: percent inhibition of Type II AR

inhibition at 0.3 µM [1, 3] [%] | inhibition at 0.3 µM [2, 4] [%] | SMILES | inhibition at 0.3 µM [1, 5] [%] | inhibition at 0.3 µM [2, 6] [%]
84 | 40 | CN1C(=O)CC[C@]2(C)c3ccc(-c4nc5c(ccc6ccccc65)s4)cc3CC[C@@H]12 [Example 260, (+)-(4aR)-(10bR)-4-methyl-8-(2-naphtho<1,2-d>thiazolyl)-10b-methyl-1,2,3,4,4a,5,6,10b-octahydrobenzo[f]quinolin-3-one] |  | 
91 | 41 | CN1C(=O)CC[C@]2(C)c3ccc(-c4nc5c(Cl)cccc5s4)cc3CC[C@@H]12 [Example 262, (+)-(4aR)-(10bR)-4-methyl-8-(2-[4-chloro]benzothiazolyl)-10b-methyl-1,2,3,4,4a,5,6,10b-octahydrobenzo[f]quinolin-3-one] |  | 
73 | 81 | CN1C(=O)CC[C@]2(C)c3ccc(Sc4nc5c(-c6ccccc6)cccc5s4)cc3CC[C@@H]12 [Example 184, (+)-(4aR)-(10bR)-4-methyl-8-(4-phenyl-2-benzothiazolylthio)-10b-methyl-1,2,3,4,4a,5,6,10b-octahydrobenzo[f]quinolin-3-one] |  | 
44 | 38 | CN1C(=O)CC[C@]2(C)c3ccc(Sc4ccccn4)cc3CC[C@@H]12 [Example 111, (+)-(4aR)-(10bR)-4,10b-dimethyl-8-(2-pyridinylthio)-1,2,3,4,-4a,5,6,10b-octahydrobenzo[f]quinolin-3-one] |  | 
82 | 80 | CN1C(=O)CC[C@]2(C)c3ccc(Sc4ccc5cccc(F)c5n4)cc3CC[C@@H]12 [Example 174, (+)-(4aR)-(10bR)-4-methyl-8-(8-fluoro-2-quinolinylthio)-10b-methyl-1,2,3,4,4a,5,6,10b-octahydrobenzo[f]quinolin-3-one] |  | 
55 | 47 | CN1C(=O)CC[C@]2(C)c3ccc(Sc4cncc5ccccc45)cc3CC[C@@H]12 [Example 114, (4aR)-(10bR)-4,10b-dimethyl-8-(4-isoquinolinylthio)-1,2,3,4,4a,5,6,10b-octahydrobenzo[f]quinolin-3-one] |  | 
88 | 79 | CC(C)c1cccc2sc(Sc3ccc4c(c3)CC[C@H]3N(C)C(=O)CC[C@]43C)nc12 [Example 157, (+)-(4aR)-(10bR)-4-methyl-8-(2-[4-isopropyl]benzothiazolylthio)-10b-methyl-1,2,3,4,4a,5,6,10b-octahydrobenzo[f]-quinolin-3-one] |  | 

Further lines, the compound ahead of its results:

SMILES | inhibition at 0.3 µM [1, 3] [%] | inhibition at 0.3 µM [2, 4] [%] | inhibition at 0.3 µM [1, 5] [%] | inhibition at 0.3 µM [2, 6] [%]
CN1C(=O)CC[C@]2(C)c3ccc(-c4ccc(COc5ccccc5)s4)cc3CC[C@@H]12 [Example 126, (+)-(4aR)-(10bR)-4-methyl-8-(2-[5-(phenoxymethyl)thienyl])-10b-methyl-1,2,3,4,4a,5,6,10b-octahydrobenzo[f]quinolin-3-one] | 85 | 43 |  | 
CN1C(=O)CC[C@]2(C)c3ccc(-c4cc(F)cc(F)c4)cc3CC[C@@H]12 [Example 227, (+)-(4aR)-(10bR)-4-methyl-8-(3,5-difluorophenyl)-10b-methyl-1,2,3,4,4a,5,6,10b-octahydrobenzo[f]quinolin-3-one] | 97 | 25 |  | 
Cc1ccc2ccccc2c1-c1ccc2c(c1)CC[C@H]1N(C)C(=O)CC[C@]21C [Example 72, (+)-(4aR)-(10bR)-4-methyl-8-(1-[2-methyl]naphthyl)-10b-methyl-1,2,3,4,4a,5,6,10b-octahydrobenzo[f]quinolin-3-one] | 16 | 26 |  | 
C[C@]12CCC(=O)N[C@@H]1CCc1cc(SCc3ccccc3)ccc12 [Example 23, (4aR)-(10bR)-8-benzylthio-10b-methyl-1,2,3,4,4a,5,6,10b-octahydrobenzo[f]quinolin-3-one] | 59 | 31 |  | 
CN1C(=O)CC[C@]2(C)c3ccc(-c4ccc(C(C)(C)C)cc4)cc3CC[C@@H]12 [Example 75, (+)-(4aR)-(10bR)-4-methyl-8-(4-t-butylphenyl)-10b-methyl-1,2,3,4,4a,5,6,10b-octahydrobenzo[f]quinolin-3-one] | 63 | 40 |  | 
CN1C(=O)CC[C@]2(C)c3ccc(-c4cc5ccccc5c5ccccc45)cc3CC[C@@H]12 [Example 67, (+)-(4aR)-(10bR)-4-methyl-8-(9-phenanthrenyl)-10b-methyl-1,2,3,4,4a,5,6,10b-octahydrobenzo[f]quinolin-3-one] |  |  | 22 | 54
CN1C(=O)CC[C@]2(C)c3ccc(-c4ccc(Cl)c(C(F)(F)F)c4)cc3CC[C@@H]12 [Example 24, (+)-(4aR)-(10bR)-4-methyl-8-(4-chloro-3-trifluoromethylphenyl)-10b-methyl-1,2,3,4,4a,5,6,10b-octahydrobenzo[f]-quinolin-3-one] | 88 | 28 |  | 
CN1C(=O)CC[C@]2(C)c3ccc(C#Cc4ccccc4)cc3CC[C@@H]12 [Example 284, (4aR)-(10bR)-4,10b-dimethyl-8-(2-phenylethynyl)-1,2,3,4,4a,5,6,10b-octahydrobenzo[f]quinolin-3-one] |  |  | 86 | 63
CN1C(=O)CC[C@]2(C)c3ccc(C(=O)NC(c4ccccc4)c4ccccc4)cc3CC[C@@H]12 [Example 148, (4aR)-(10bR)-4,10b-dimethyl-8-diphenylmethylcarboxamido-1,2,3,4,4a,5,6,10b-octahydrobenzo[f]quinolin-3-one] | 2 | 12 |  | 
CN1C(=O)CC[C@]2(C)c3ccc(SCc4nc5ccccc5s4)cc3CC[C@@H]12 [Example 192, (+)-(4aR)-(10bR)-8-(2-benzothiazolylmethylthio)-4,10b-dimethyl-1,2,3,4,4a,5,6,10b-octahydrobenzo[f]quinoline-3-one] | 80 | 33 |  | 
COc1ccc(Sc2ccc3c(c2)CC[C@H]2NC(=O)CC[C@]32C)cc1 [Example 13, (+)-(4aR)-(10bR)-8-(4-methoxyphenylthio)-10b-methyl-1,2,3,4,4a,5,6,10b-octahydrobenzo[f]quinolin-3-one] | 11 | 22 |  | 
CN1C(=O)CC[C@]2(C)c3ccc(/C=C\c4ccccc4)cc3CC[C@@H]12 [Example 285, (4aR)-(10bR)-4,10b-dimethyl-8-(2-phenylethenyl)-1,2,3,4,4a,5,6,10b-octahydrobenzo[f]quinolin-3-one] |  |  | 93 | 36
CN1C(=O)CC[C@]2(C)c3ccc(C(=O)c4ccccc4Cl)cc3CC[C@@H]12 [Example 288, (4aR)-(10bR)-8-(2-chlorobenzoyl)-4,10b-dimethyl-1,2,3,4,4a,5,6,10b-octahydrobenzo[f]quinolin-3-one] | 19 | 12 |  | 
C[C@]12CCC(=O)N[C@@H]1CCc1cc(Sc3ccccc3Cl)ccc12 [Example 7] | 49 | 42 |  | 
CN1C(=O)CC[C@]2(C)c3ccc(-c4cnccn4)cc3CC[C@@H]12 [Example 253, (+)-(4aR)-(10bR)-4-methyl-8-(2-pyrazinyl)-10b-methyl-1,2,3,4,4a,5,6,10b-octahydrobenzo[f]quinolin-3-one] | 5 | 32 |  | 
